As a reminder, the melting point is the temperature, or range, at which the solid turns liquid. `Cc1ccc(S(=O)(=O)NCCc2cccc(OCC(=O)Nc3nnn[nH]3)c2)cc1` came in with a melting point of 199 to 201 °C.

As to `CCOC(=O)CCNC(=O)c1ccc2c(CC)nn(C3CCCC3)c2c1`, the melting point lay in the range of 74 to 76 °C.

As for `COc1ccc(-c2nn(Cc3ccc(Cl)cc3Cl)c(=O)cc2-c2ccncc2)cc1`, the melting point lay within 151 to 153 °C.

`CCC1CCN(C(=O)C(Cc2c[nH]cn2)NC(=O)C2CCC(=O)N2)C1C(N)=O` (racemic) came in with a melting point of 156 to 160 °C.

The compound `CCC1=NNC(C)=C(C(=O)OCCOC)C1c1cccc([N+](=O)[O-])c1` (centres undefined) showed a melting point of 141 °C.

As for `NCC(=O)N[C@H]1CC[C@H](O)CC1`, the melting point was in the range of 110 to 114 °C.

`CCCCOC(=O)c1cc2cccc(OC)c2[nH]1` registered a melting point of 66 to 69 °C.

Regarding `Cc1cc(N)c([N+](=O)[O-])cc1OS(C)(=O)=O`, the melting point amounted to 128 °C.

`CS(=O)(=O)N(CCBr)N(S(C)(=O)=O)S(C)(=O)=O` yielded a melting point of 147 to 148 °C.

For the compound `CC(=O)ONC(=N)c1ccc(-c2ccc(-c3ccc(C(=N)NOC(C)=O)nc3)o2)cc1`, the melting point lay within 266 to 268 °C.

The compound `CC(C)c1cc(C(C)C)c(CC(=O)NS(=O)(=O)Oc2c(C(C)C)cc([N+](=O)[O-])cc2C(C)C)c(C(C)C)c1` came in with a melting point of 85 to 89 °C.

For `O=C1CCCC(=O)N1c1cc(I)cc(I)c1`, the melting point was 177 to 178 °C.

The compound `CCSc1cc(C)nc(SCC)c1NC(=O)CCCCCCCCSc1nc2ccccc2[nH]1` showed a melting point of 76 to 78 °C.

Turning to `CC(C)(C)OC(=O)c1ccc(N2CC(CN=[N+]=[N-])OC2=O)cc1F` (centres undefined), the melting point was 91 to 92 °C.

For `CC(C)n1c(=O)ccc2cnc(Nc3cccnc3)nc21`, the melting point lay within 156 to 158 °C.

With `CN1C(=O)[C@H](NC(=O)CCc2ccc(C(F)(F)F)cc2)N=C(c2ccccc2)c2ccccc21`, the melting point lay in the range of 175 to 176 °C.

Turning to `CN(Cc1ccc(S(C)=O)cc1)S(=O)(=O)c1cn(S(=O)(=O)N(C)C)c(C#N)n1` (centres undefined), the melting point turned out to be 126 °C.

As for `CC(C)S(=O)(=O)Nc1ccc(Br)cc1`, the melting point was 98 to 100 °C.

`COC(=O)c1cncn1C1c2ccccc2CC1(C)C` (single isomer, unassigned; (-)) registered a melting point of 74 to 76 °C.

`Cc1ccccc1Oc1ccc2ccc(N)nc2n1`: the melting point was found to be 192 °C.

Compound `O=C(O)CCC/C=C\[C@@H]1C[C@@H](NS(=O)(=O)c2ccc(Cl)cc2)CN1Cc1ccccc1` came in with a melting point of 87 to 91 °C.

Compound `COC(=O)c1ccc(NC(=O)C(CC2CCCC2)c2ccc(N)cc2)nc1` (centres undefined) displayed a melting point of 65 to 68 °C.

`OCC(Nc1ncnc2nc[nH]c12)c1ccccc1` (racemic) returned a melting point of 130 to 138 °C.

`COC(=O)C=CC(=O)Nc1ccc(Cl)cc1C(=O)NC(C)C1CC1` (centres undefined) yielded a melting point of 131 °C.

Compound `COc1ccc(N(N)c2cc(Cl)nc(Cl)n2)cc1` yielded a melting point of 113 to 115 °C.

`COc1ccc2c(c1)CN(C)C(=O)C2c1cc(Cl)cc(Cl)c1` (centres undefined) came in with a melting point of 163 to 165 °C.

`O=[N+]([O-])c1cccc2c(Cl)c(Br)cnc12`: the melting point lay within 135 to 136 °C.

`NCC(=O)OCc1ccc([N+](=O)[O-])cc1` showed a melting point of 45 to 50 °C.

With `Cc1ccccc1N(C)c1nc(=O)c2cccnc2s1`, the melting point lay in the range of 208 to 209 °C.

With `COc1ccc(-c2nc(C(C)=O)oc2-c2ccc(OC)cc2)cc1`, the melting point is 139 to 140 °C.

`CNC(=O)c1sc2cnccc2c1Oc1ccc(COC)cc1` came in with a melting point of 163 to 164 °C.

As for `CCn1cc(C(=O)O)c(=O)c2cc(F)c(N3CCN(c4ccccc4OC)CC3)c(OC(F)F)c21`, the melting point was in the range of 219 to 222 °C.

The compound `CCOCCc1c(-c2ccc(Cl)cc2)nc(N)n2ncnc12` displayed a melting point of 183 to 185 °C.

Compound `CC(=O)Nc1cccc(-c2ccc3nc(-c4cccnc4N)n(-c4ccc(CNC(=O)c5cccc(F)c5)cc4)c3n2)c1` gave a melting point of 174 to 187 °C.

With `CC(C)(C)OC(=O)N[C@H](CO)Cc1ccc(-c2ccccc2)cc1`, the melting point came to 116 °C.

`CC(=O)C(=NNc1cccc2ccccc12)Sc1ccc(C(C)C)cc1` came in with a melting point of 130 to 133 °C.

With `CCCOc1ccccc1-c1nc2c(CCC)nn(C)c2c(=S)[nH]1`, the melting point is 111 to 112 °C.

For `COc1cc(CCCCCCC=O)ccc1OCc1nc(-c2ccccc2)oc1C`, the melting point fell in the range of 64 to 65 °C.

The compound `Cc1nc(-c2cccs2)c2nc(-c3ccccc3)cc-2[nH]1` returned a melting point of 178 to 179 °C.

For the compound `CN1CCC(C2(O)c3cc(Cl)ccc3CC2(C)C)CC1` (centres undefined), the melting point fell in the range of 181 to 182 °C.

`CCCCCCCCOc1cc(O)c2c(=O)c3ccccc3oc2c1` returned a melting point of 98 °C.

In the case of `CC(C)(C)c1cc(CCc2ccccc2NC(=O)NCC2(c3ccc4c(c3)OCO4)CCCC2)cc(C(C)(C)C)c1O`, the melting point fell in the range of 188 to 189 °C.

`COC(=O)c1cc(C(=O)OC)cc(S(N)(=O)=O)c1` came in with a melting point of 148 to 150 °C.

Regarding `CCCCNc1nc2ccccc2c2c1ncn2C`, the melting point was 98 to 100 °C.

`CC(c1cc(Cl)cc(Cl)c1O)c1cc(F)cc(Cc2cc(Cl)ccc2O)c1O` (centres undefined) displayed a melting point of 166 °C.

`c1nc(CSCCc2ccc3c(c2)OCO3)c[nH]1` showed a melting point of 81 to 83 °C.

In turn, `CC(=O)NCCc1ccc(CCl)cc1` gave a melting point of 86 to 88 °C.

For the compound `CCCCc1nc(C(C)(C)O)c(C#N)n1C(c1ccccc1)(c1ccccc1)c1ccccc1`, the melting point fell in the range of 151 to 152 °C.

In turn, `CC(C)(CC(=O)Nc1cccc(OCc2ccc3ccc(F)cc3n2)c1)C(=O)O` showed a melting point of 209 to 210 °C.

On to `CC1(C)CC(=O)C2=C(C1)NC1=C(C(=O)CC(C)(C)C1)C2c1ccc(Br)c([N+](=O)[O-])c1`, for which the melting point was more than 300 °C.

Compound `CCOC(=O)c1cc(CC)sc1Nc1ccc([N+](=O)[O-])cc1[N+](=O)[O-]` returned a melting point of 146 to 148 °C.

In turn, `O=C(c1ccc(N2CCCC2)cc1)C1CCN(Cc2ccccc2)CC1` showed a melting point of 154 to 156 °C.

The compound `Nc1nc(SC2CCCC2)c2ncn(C3C=CC(CO)C3)c2n1` (centres undefined) gave a melting point of 167 to 169 °C.

`CC1(C)CC(CS(=O)(=O)NCC(=O)O)c2cc(OCc3ccccc3)ccc2O1` (centres undefined) had a melting point of 131 °C.

The compound `Cc1cc2nccc(-c3cccnc3)n2n1` registered a melting point of 182 to 184 °C.

For `OC1CC2OCCN3CCC4c5ccccc5N1C4C23` (centres undefined), the melting point came to 180 °C.

Compound `O=C(O)Cn1cccc1Sc1ccccc1` yielded a melting point of 101 to 102 °C.

As to `CCCc1nc2c(N)nc3cc(-c4cccc(C(=O)N5CCOCC5)c4)ccc3c2s1`, the melting point lay in the range of 190 to 193 °C.

In the case of `CCc1cccc(C)c1CNc1cc(C(=O)N(C)C)nc2c(CO)c(C)[nH]c12`, the melting point was 280 °C.

`O=CNC(=O)N1CC(Oc2cccc(C(F)(F)F)c2)C1`: the melting point fell in the range of 118 to 119 °C.

For `CC(C)(CO)NC(N)=S`, the melting point was in the range of 127 to 129 °C.

As for `NC(=O)COC(=O)c1ccc(O)cc1`, the melting point was in the range of 250 to 255 °C.

Compound `CCN1CCN(CC/C=C/c2ccc3c(Nc4ccc(Sc5nccn5C)c(Cl)c4)c(C#N)cnc3c2)CC1` came in with a melting point of 194 to 204 °C.

Regarding `COC(=O)COc1c(F)cc(SCCNS(=O)(=O)c2ccc(Cl)cc2)cc1F`, the melting point was 79.5 to 80.5 °C.

The compound `CCOCc1nc2c(N)nc3ccccc3c2n1NCCCNC(=O)NC(C)C` displayed a melting point of 174 to 177 °C.

`Cc1c(Br)ccc(S(C)(=O)=O)c1C1=NOC(CCl)(CCl)C1` came in with a melting point of 144 to 145 °C.

In the case of `O=C(NCCc1ccccc1)Nc1ccc(CN2C(=O)[C@H]3CCC[C@H]3N(C(=O)CN3C(=O)c4ccccc4C3=O)c3ccccc32)cc1` (relative stereo), the melting point was in the range of 145 to 147 °C.

For `CS(=O)(=O)c1ccc(-c2c(-c3ccccc3)c(=O)c2=O)cc1`, the melting point lay in the range of 139 to 140 °C.

In turn, `Cc1ccc(C2C(=O)CC(C)(C)CC2=O)c(C)c1` had a melting point of 167 to 169 °C.

In turn, `CC=C1CCC2C3C(OC(C)=O)CC4CC(OC(C)=O)CCC4(C)C3CCC12C` (centres undefined) gave a melting point of 92 to 93 °C.

Regarding `CNC(=O)CN(c1ccc(Cl)cc1N(C)c1ccccc1)S(=O)(=O)c1ccc(OC)c(OC)c1`, the melting point worked out at 149 °C.

Compound `C#CCSc1nc(Cl)cc(Cl)n1` had a melting point of 67 to 70 °C.

`CCCCC(=N)NC(=O)Nc1cccc(C(F)(F)F)c1` came in with a melting point of 167 to 169 °C.

Compound `Cc1ccc(NC(=O)c2ccccc2)c(C(=O)O)c1` showed a melting point of 205 to 208 °C.

Compound `CCc1nc2ncnc(-c3c(C)cc(C)cc3C)c2[nH]1` yielded a melting point of 215 to 217 °C.

`CC(=O)c1cc(S(=O)(=O)c2ccccc2)ccc1OC[C@@H]1CO1` gave a melting point of 112 to 114 °C.

`COc1ccc2c(c1)CCC1C2CCC2(C)C1CCC2N(C=O)CCOCCO` (centres undefined) gave a melting point of 134 to 135 °C.

With `O=C(O)Cn1c(-c2cccc(Br)c2)nc2cccnc21`, the melting point fell in the range of 247 to 249 °C.

On to `CCOC(=O)C(C#N)=CNc1ncc(C)cc1C`, for which the melting point lay in the range of 156 to 159 °C.

In turn, `CCOC(=O)[C@H]1CCc2ccc(O)cc2O1` showed a melting point of 77 to 78 °C.

In turn, `Clc1cccc(Nc2ncnc3[nH]nc(NCc4ccc5c(c4)OCO5)c23)c1` showed a melting point of 220 to 222 °C.

Compound `Cc1cc(O)c(S(=O)Cc2ccc(Cl)c(Cl)c2)c(=O)o1` (centres undefined) gave a melting point of 144 to 146 °C.

Compound `O=C1C(=Cn2ccnc2)CSc2ccc(Cl)cc21` gave a melting point of 139 to 141 °C.

`c1ccc(NCC2Oc3ccccc3O2)cc1` had a melting point of 70 to 72 °C.

`CN(CCCN1CCC(=C2c3ccccc3C=Cc3ccccc32)CC1)c1ncccn1` came in with a melting point of 129 °C.

For the compound `O=C(NCc1ccc(Cl)cc1)c1cn2c3c(cc(CN4CCOCC4)cc3c1=O)CN(Cc1ccccc1)C2`, the melting point was in the range of 203 to 205 °C.

Compound `NC(=NO)c1ncn2c1[C@@H]1CCN1C(=O)c1c(Br)cccc1-2` returned a melting point of 265 to 266 °C.

As to `CC#CCOc1ccc(S(=O)(=O)N(C)c2c(C(=O)OCC)cnc3c2c(C)nn3C)cc1`, the melting point lay within 50 to 52 °C.

In turn, `CCOC(=O)C(S)C(=S)Cc1ccc(Cl)cc1` (centres undefined) displayed a melting point of 36.5 to 37 °C.

The values above are taken from a melting point compilation (Tetko et al.; mined from patent text by program, amines drawn as free bases though some values may be those of a salt).
